Test results reported in ChEMBL document CHEMBL1201862, “PubChem BioAssay data set” (2004).
Values joined by “and” are separate entries in the source; they are usually repeats but may differ in a detail not shown here. Identical values can stand only once.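 Assay format: 96-well plates, 48-hour exposure. Here, GI50 denotes the concentration required for 50% inhibition of growth.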 Active and inactive are the calls of the source. Cut-off read from the data, not from the text of the source: active = GI50 up to about 1.1 µM and inactive = higher.

Experiments:
Test in all cases: NCI-60 cell line screen, 48 h
[1] = system: SNB-19
[2] = system: U-251
[3] = system: HCT-15
[4] = system: UO-31
[5] = system: SK-MEL-2
[6] = system: ACHN
[7] = system: LOX IMVI
[8] = system: NCI-H23
[9] = system: K562
[10] = system: MOLT-4
[11] = system: HCC 2998
[12] = system: PC-3
[13] = system: SR
[14] = system: HCT-116
[15] = system: 786-0
[16] = system: SF-268
[17] = system: SK-MEL-28
[18] = system: SF-539
[19] = system: SK-OV-3
[20] = system: SNB-75
[21] = system: A498
[22] = system: NCI/ADR-RES
[23] = system: MDA-N
[24] = system: RXF 393
[25] = system: HL-60
[26] = system: RPMI-8226
[27] = system: UACC-257
[28] = system: CCRF-CEM
[29] = system: SN12C
[30] = system: HT-29
[31] = system: Hs-578T
[32] = system: OVCAR-5
[33] = system: COLO 205
[34] = system: EKVX
[35] = system: SK-MEL-5
[36] = system: T47D
[37] = system: MCF7
[38] = system: TK-10
[39] = system: SW-620
[40] = system: MDA-MB-435
[41] = system: UACC-62
[42] = system: A549
[43] = system: IGROV-1
[44] = system: SF-295
[45] = system: HOP-62
[46] = system: DU-145
[47] = system: M14
[48] = system: HOP-92
[49] = system: KM12
[50] = system: CAKI-1
[51] = system: NCI-H226
[52] = system: NCI-H522
[53] = system: OVCAR-3
[54] = system: MDA-MB-231
[55] = system: OVCAR-8
[56] = system: Malme-3M

Compound: Cc1cc(NCCCCCCNc2cc(C)nc3ccc(N)cc23)c2cc(N)ccc2n1
- GI50 [1]: 37 µM (inactive)
- GI50 [2]: 42.3 µM (inactive)

Compound: CCOC(=O)C(Cl)(NC(=O)NC(Cl)(C(=O)OCC)C(F)(F)F)C(F)(F)F (stereo not drawn)
- GI50 [3]: > 100 µM
- GI50 [4]: > 100 µM (inactive)
- GI50 [1]: > 100 µM (inactive)
- GI50 [5]: > 100 µM (inactive)
- GI50 [6]: > 100 µM (inactive)
- GI50 [7]: > 100 µM (inactive)
- GI50 [8]: > 100 µM (inactive)
- GI50 [9]: > 100 µM (inactive)
- GI50 [10]: > 100 µM (inactive)
- GI50 [11]: > 100 µM (inactive)
- GI50 [12]: > 100 µM (inactive)
- GI50 [13]: > 100 µM (inactive)
- GI50 [14]: > 100 µM (inactive)
- GI50 [15]: > 100 µM (inactive)
- GI50 [16]: > 100 µM (inactive)
- GI50 [17]: > 100 µM (inactive)
- GI50 [18]: > 100 µM (inactive)
- GI50 [19]: > 100 µM (inactive)
- GI50 [20]: > 100 µM (inactive)
- GI50 [21]: > 100 µM (inactive)
- GI50 [22]: > 100 µM (inactive)
- GI50 [23]: > 100 µM (inactive)
- GI50 [24]: > 100 µM (inactive)
- GI50 [2]: > 100 µM (inactive)
- GI50 [25]: > 100 µM (inactive)
- GI50 [26]: > 100 µM (inactive)
- GI50 [27]: > 100 µM (inactive)
- GI50 [28]: > 100 µM (inactive)
- GI50 [29]: > 100 µM (inactive)
- GI50 [30]: > 100 µM (inactive)
- GI50 [31]: > 100 µM (inactive)
- GI50 [32]: > 100 µM (inactive)
- GI50 [33]: > 100 µM (inactive)

Compound: CC1(C)C2CC(=O)C1(C)C(OCc1ccccc1)C2Br (stereo not drawn)
- GI50 [3]: 17.3 µM and 34 µM
- GI50 [34]: 50 µM (inactive) and 57.9 µM (inactive)
- GI50 [35]: 14.6 µM (inactive) and 20.7 µM (inactive)
- GI50 [36]: 46.2 µM (inactive) and 28.2 µM (inactive)
- GI50 [8]: 40.7 µM (inactive) and 27.9 µM (inactive)
- GI50 [37]: 36 µM (inactive) and 62.8 µM (inactive)
- GI50 [38]: 53.6 µM (inactive)
- GI50 [39]: 19.3 µM (inactive) and 32.7 µM (inactive)
- GI50 [40]: 29.9 µM (inactive) and 25.6 µM (inactive)
- GI50 [41]: 34.9 µM (inactive) and 58.3 µM (inactive)
- GI50 [9]: 27.1 µM (inactive) and 23.2 µM (inactive)
- GI50 [42]: 37.8 µM (inactive) and 59.3 µM (inactive)
- GI50 [10]: 17.7 µM (inactive) and 17.3 µM (inactive)
- GI50 [12]: 18 µM (inactive) and 28.6 µM (inactive)
- GI50 [13]: 21.4 µM (inactive) and 25.1 µM (inactive)
- GI50 [14]: 19.3 µM (inactive) and 38.2 µM (inactive)
- GI50 [16]: 56.6 µM (inactive)
- GI50 [43]: 74.8 µM (inactive) and 43.8 µM (inactive)
- GI50 [22]: 20.7 µM (inactive) and 36.7 µM (inactive)
- GI50 [25]: 22.5 µM (inactive) and 23.2 µM (inactive)
- GI50 [28]: 15.8 µM (inactive) and 20.5 µM (inactive)
- GI50 [30]: 15.5 µM (inactive) and 22.6 µM (inactive)
- GI50 [44]: 25.2 µM (inactive) and 50.4 µM (inactive)

Compound: CCOC(=O)C(C)(C)/C=C\C(Cl)=C(Cl)Cl
- GI50 [34]: > 100 µM (inactive)
- GI50 [4]: > 100 µM (inactive)
- GI50 [1]: > 100 µM (inactive)
- GI50 [35]: > 100 µM (inactive)
- GI50 [45]: > 100 µM (inactive)
- GI50 [6]: > 100 µM (inactive)
- GI50 [7]: > 100 µM (inactive)
- GI50 [8]: > 100 µM (inactive)
- GI50 [38]: > 100 µM (inactive)
- GI50 [39]: > 100 µM (inactive)
- GI50 [40]: > 100 µM (inactive)
- GI50 [46]: > 100 µM (inactive)
- GI50 [41]: > 100 µM (inactive)
- GI50 [9]: > 100 µM (inactive)
- GI50 [47]: > 100 µM (inactive)
- GI50 [42]: > 100 µM (inactive)
- GI50 [10]: > 100 µM (inactive)
- GI50 [11]: > 100 µM (inactive)
- GI50 [12]: > 100 µM (inactive)
- GI50 [13]: > 100 µM (inactive)
- GI50 [14]: > 100 µM (inactive)
- GI50 [15]: > 100 µM (inactive)
- GI50 [16]: > 100 µM (inactive)
- GI50 [48]: > 100 µM (inactive)
- GI50 [49]: > 100 µM (inactive)
- GI50 [17]: > 100 µM (inactive)
- GI50 [18]: > 100 µM (inactive)
- GI50 [19]: > 100 µM (inactive)
- GI50 [20]: > 100 µM (inactive)
- GI50 [50]: > 100 µM (inactive)
- GI50 [43]: > 100 µM (inactive)
- GI50 [22]: > 100 µM (inactive)
- GI50 [51]: > 100 µM (inactive)
- GI50 [23]: > 100 µM (inactive)
- GI50 [24]: > 100 µM (inactive)
- GI50 [25]: > 100 µM (inactive)
- GI50 [26]: > 100 µM (inactive)
- GI50 [27]: > 100 µM (inactive)
- GI50 [28]: 71.6 µM (inactive)
- GI50 [52]: > 100 µM (inactive)
- GI50 [29]: > 100 µM (inactive)
- GI50 [53]: > 100 µM (inactive)
- GI50 [30]: > 100 µM (inactive)
- GI50 [31]: > 100 µM (inactive)
- GI50 [54]: > 100 µM (inactive)
- GI50 [55]: > 100 µM (inactive)
- GI50 [32]: > 100 µM (inactive)
- GI50 [44]: > 100 µM (inactive)
- GI50 [33]: > 100 µM (inactive)
- GI50 [56]: > 100 µM (inactive)
